The text below walks through data of patent publication US20060251702A1, “Implantable materials and methods for inhibiting tissue adhesion formation” (Cook Biotech Incorporated, priority 2005, published 2006).

This assay deals with post-surgical adhesions on the traumatized cecal surface. It is filed as in vivo. Particulars: score of one rat, 21 days. The method, then: The samples were then removed from solution, frozen at −80° C. overnight, relyophilized, and sterilized with ethylene oxide.
Forty-nine 250-300 gram Sprague-Dawley rats were anesthetized with an IM dose of ketamine and xylazine and prepared for aseptic abdominal surgery. […] The adjacent wall of the peritoneal cavity was mildly abraded with the same nylon brush and the cecum was either placed back into the abdominal cavity, covered with biomaterial, which was anchored to the abdominal cavity by suturing it to mesenchymal fat, or injected with a solution and placed back into the abdominal cavity.
Following cecal abrasion, groups of rats received one of the following 8 treatments: • Treatment 1: (Control) No biomaterials were implanted following cecal injury. […] Care was taken to avoid perforating the bowel N=6 rats. • Treatment 3: (PPM) a piece of polypropylene mesh (Bard) was placed over the abraded surface and secured with non-absorbable nylon suture. […] N=6 rats. • Treatment 8: […] DMSO was delivered to the peritoneal cavity prior to closure. N=6 rats.
Following placement of the cecum back into the abdominal cavity, the abdominal wall was closed with 4-0 silk and the skin closed with surgical staples.

The mark [1] stands for this setting: IP high dose: 2.0 mg nimesulide in 1.0 mL DMSO to the peritoneal cavity.
Where [2] appears, read: IP low dose: 0.5 mg nimesulide in 1.0 mL DMSO to the peritoneal cavity.

Several values for one entry are separate records, joined by “and”; a condition that tells them apart may be missing. Identical values can stand only once. Like-named read-outs stand apart in the source and are kept apart here.

Regarding `CS(=O)(=O)Nc1ccc([N+](=O)[O-])cc1Oc1ccccc1` [nimesulide], the “Extent (of adhesions, score)” value runs as follows: under setting [1], 1 (1=adhesions on 25% of the traumatized cecal surface) (3×) and 0; under setting [2], 2 (2=adhesions on 50% of the traumatized cecal surface). In addition, the “Tenacity (of adhesions, score)” value reads like this: under setting [1], 2 (2×) and 1 and 0; under setting [2], 2.
